Data on two compounds can be found in patent US9788545B2, “Synergistic pesticidal compositions and related methods” (Dow AgroSciences LLC, priority 2013, dated 2017).

Common to all, as to format: in vivo
In test [1] the test system is Western flower thrips, Frankliniella occidentalis. Kind of test: Cotton leaf punch dip bioassay on larval stage 2 nymphs of Western flower thrips (Examples 7A-7D). The settings on record: Compound I alone, dose rate 0.04 weight %, treated cotton leaf punches. The text has this:
(§1) The method described in Colby S. R., “Calculating Synergistic and Antagonistic Responses of Herbicide Combinations,” Weeds, 1967, 15, 20-22 was used to determine an existence of synergic effect between the sulfoximine-based nAChR agonist compound and the pesticide (I), (II) or any agriculturally acceptable salt thereof in the formulated pesticidal composition. In this method, the percent insect control of the formulated pesticidal composition as observed in the study was compared to the “expected” percent control (E) as calculated by equation (1) (hereinafter “Colby's equation”) below: […]
The active compounds were formulated in a 10% acetone solution with 0.025% non-ionic surfactant, TWEEN® 20. Cotton leaf punches were used for bioassays. Two cotton leaf punches were placed in each solution and left there for 10 minutes. Leaves were taken out of the solution, placed on a piece of filter paper in separated Petri dishes, and air dried. Each leaf disc was considered a repetition. Five larval stage 2 nymphs of Western flower thrips, Frankliniella occidentalis, were infested per repetition.

For test [2], the system named is South American brown stink bug, Euschistus heros. Kind of test: Bean-piece dip bioassay on third-instar nymphs of South American brown stink bug (Example 6). The following applies: Compound I alone, dose rate 0.04 weight %, treated bean pieces.
Source text: as §1
The active compounds were formulated in a 10% acetone solution with 0.025% non-ionic surfactant, TWEEN® 20. Bioassays were performed for each different active solution. Bean pieces (about one inch-long) were used for the tests. Four bean pieces were placed in each tested active solution and left there for 10 minutes. Bean pieces were taken out of the active solution, and each piece was placed in a well in a 32-well tray and allowed to air dry. Three third-instar nymphs of South American brown stink bug, Euschistus heros, were infested into each well.

The subject of test [3] is brown stink bug, Euschistus heros. Kind of test: Diet-treatment bioassay on second-instar nymphs of brown stink bug (Examples 5A, 5B). The following applies: Compound II alone, dose rate 0.04 weight %, applied to diet.
Source text: as §1
The percent control of the pesticidal composition against brown stink bug, Euschistus heros, was determined as the “Observed” action, and compared to those obtained by using about 0.04 weight % of Compound II, and using about 0.000156 weight % of sulfoxaflor alone. The “Colby's Expected Action” was calculated using Colby's equation as discussed previously.

The structures appear in SMILES notation.

In the case of `CCN(C(=O)CCSCCC(F)(F)F)c1cn(-c2cccnc2)nc1Cl` [Compound I, N-(3-chloro-1-(pyridin-3-yl)-1H-pyrazol-4-yl)-N-ethyl-3-((3,3,3-trifluoropropyl)thio)propanamide], the “% Control Three Days After Treatment” value in test [1] came out at 0%. In addition, the “% Control Four Days After Treatment” value in test [2] was determined as 0%.
In the case of `CCN(C(=O)CC[S+]([O-])CCC(F)(F)F)c1cn(-c2cccnc2)nc1Cl` (stereo not drawn) [Compound II, N-(3-chloro-1-(pyridin-3-yl)-1H-pyrazol-4-yl)-N-ethyl-3-((3,3,3-trifluoropropyl)sulfinyl)propanamide], the “% Control Six Days After Treatment” value in test [3] is “no control”.
